# Experimental data from US20250367268A1, “Compositions and Methods for Treating Internal Bleeding and Hemorrhage” (priority 2024, published 2025).
# Assays:
# hemorrhagic shock = type: in vivo, rats
# Description: Two studies of resuscitation by albumin after hemorrhage were performed. In the first study, resuscitation by a crystalloid (control) was compared to resuscitation with either a bolus of bovine serum albumin (BSA) saturated with oleic acid (OA-BSA) or a bolus of NEFA-free albumin, followed by crystalloid, as needed. As commercially available pharmaceutical grade albumin is human albumin (HSA) that is nearly saturated with caprylic acid, instead of oleic acid, in the second study OA-BSA, caprylic acid-saturated BSA (CA-BSA), and pharmaceutical grade human serum albumin (HSA) were compared. A crystalloid-only group (“Crystalloid Only Group”) was also run as a control. […] There were no significant differences among the Albumin Groups (all containing high concentrations of NEFA) in any of the other measurements.
# Laparotomy was performed to induce trauma, then the opening was covered with plastic wrap. The right hind leg was elevated and an inflatable tourniquet (digit cuff, Hokanson, Bellevue, WA) was positioned on the leg, but not yet inflated. For the second albumin study, isoflurane was lowered to 1% immediately before start of hemorrhage. Rats were hemorrhaged (2 ml/min/kg BW) by syringe pump until MAP dropped to 35 mmHg (designated as time T=0 h). At that time, the tourniquet was inflated using a Portable Tourniquet System (Delfi Medical, Vancouver, Canada), representing first aid. The controlled hemorrhage rate was then reduced to 0.6 ml/min/kg to simulate hemorrhage not controlled by tourniquet (e.g., from another injury site or imperfect application). Blood pressure was maintained at 33-38 mmHg by adjusting the draw rate (0.2-0.8 ml/min/kg), until the total hemorrhage reached 27 ml/kg. […] The bolus size was chosen as the estimated dosage needed to replace the albumin lost to hemorrhage. […] At T=2 h, representing the maximum recommended time before conversion to hemostatic dressing 16, the tourniquet was deflated and removed. Surviving animals were euthanized at T=4 h by intravenous administration of 0.2 ml of sodium pentobarbital euthanasia solution (Beuthanasia, Merck Animal Health, Madison, NJ), while still under anesthesia. After euthanasia, the right lung was harvested for moisture analysis (MA160, Sartorious, Bohemia, NY) and the left lung for collection of BALF (3X bronchoalveolar lavage fluid with 3 ml saline). Following the final lavage, the left lung was infused with formalin fixative for histological analysis. The liver, heart, spleen, kidney, and jejunum were also collected and fixed in formalin for histological analysis.
# [1] = tested on: Trauma and 27 ml/kg hemorrhagic shock; experiment: Second albumin study: trauma and 27 ml/kg hemorrhagic shock model, albumin bolus then crystalloid as needed; type: in vivo
# Description: Rats were acclimated for at least 5 days after arrival at the facility prior to experimental procedures. Trauma and 27 ml/kg hemorrhagic shock models in the art were used with some modifications: 1) an extended observation period considered entirely pre-hospital to represent prolonged field care and 2) a reduction in isoflurane during hemorrhage, intended to reduce the mortality prior to resuscitation (FIG. 28). Rats were assigned into 4 treatment groups: Crystalloid (N=15), OA-saturated BSA (OA-BSA; N=17), CA-saturated BSA (CA-BSA; N=17), and pharmaceutical HSA (N=17). Adult, male Sprague Dawley rats (Charles River Laboratories, Houston, TX) between 325 and 400 g in body weight (BW) were induced with isoflurane (4%) in medical air, then maintained at 2-3% throughout instrumentation. Core temperature was maintained (36-37° C.) using a heating pad and monitored with a rectal probe (Physitemp, Clifton, NJ). The carotid artery was cannulated for continuous pressure recording, the left femoral artery for controlled hemorrhage, and the left femoral vein for blood sampling and resuscitation fluid administration. PE50 tubing for vessel cannulations was soaked overnight in heparin to reduce clotting.
# Laparotomy was performed to induce trauma, then the opening was covered with plastic wrap. […]
Substance,amount of resuscitation fluid required to keep pressure at a sufficient level (hemorrhagic shock; first study) [mL/kg],significantly reduced mortality compared to the Crystalloid Only Group (hemorrhagic shock; first study),"mortality (hemorrhagic shock; first study, FIG. 4) [%]","loss of protein from the circulation (plasma/total protein T2 to T4) ([1]; rat, in vivo)",effect on pressure relative to OA-BSA and Crystalloid Only Group (hemorrhagic shock; first study),"vascular leakage (hemorrhagic shock; rat, in vivo)","loss of protein from the circulation (plasma/total protein T2 to T4) ([1]; second study, FIG. 2 and FIG. 3)"
"OA-BSA: bovine serum albumin (BSA) saturated with oleic acid, 25% bolus",6,significantly reduced mortality,8,significant drop,–,–,–
NEFA-free albumin: albumin preparation with a NEFA content of 0-0.14% by weight of albumin; bovine serum albumin in the experiments,46,–,–,–,intermediate between the other two groups,did not cause vascular leakage,–
CA-BSA: caprylic acid-saturated BSA,–,–,–,–,–,–,significant drop
